One assay concerns the target T1, CDK7 (Homo sapiens, UniProt P50613).
T1 construct: purchased Carna Biosciences, Inc. 04-108
Briefly: CDK7 enzyme inhibition test. The format is biochemical. The following applies: Ki=IC50/(1+S/Km); 33P bound to MBP, [γ-33P]ATP, 30° C. for 20 minutes; read-out: Ki value of CDK7 inhibitory activity. The essentials: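 Recombinant CDK7 with MBP substrate and [γ-33P]ATP (500 μM solution, diluted into the mix) in HEPES pH 7.4/DTT/Triton X-100/MgCl2, 20 min at 30 °C. TCA-precipitated 33P-MBP counted by scintillation; IC50 from inhibition, Ki = IC50/(1+S/Km).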

The target in the next assay is T2, CDK2 (Homo sapiens, UniProt P24941).
T2 construct: purchased Invitrogen Corp. PV3267
Briefly: CDK2 enzyme inhibition test. Conditions: Ki=IC50/(1+S/Km); 33P bound to MBP, [γ-33P]ATP, 30° C. for 20 minutes; read-out: Ki value of CDK2 inhibitory activity. Format: biochemical. How it is done: CDK2 Enzyme Inhibition Test
The preparation of a buffer solution was performed by mixing a HEPES buffer solution (pH 7.4), DTT, Triton X-100, and MgCl2. A 500 μM [γ-^33P]ATP solution was used by diluting a 10 mM ATP solution and a commercially available [γ-^33P]ATP solution (manufactured by PerkinElmer, Inc., Code No. NEG-302H) with the buffer solution. A CDK2 solution was used by diluting commercially available CDK2 (manufactured by Invitrogen Corp., Catalog No. PV3267) with the buffer solution. A substrate solution was used by diluting MBP with the buffer solution. As for the preparation of a reaction solution, the buffer solution, the 500 μM [γ-^33P]ATP solution, the CDK2 solution, and the substrate solution were mixed at 4° C. to obtain a reaction solution.
(§1) CDK2 enzyme reaction was performed by adding 5 μL of a test compound solution prepared with 10% DMSO/90% injectable distilled water, and 45 μL of the reaction solution in a 1.5 mL microtube at 4° C. and reacting in the microtube at 30° C. for 20 minutes in a water bath incubator. After the reaction, a 10% aqueous TCA solution was added to each microtube while cooled to 4° C., and mixed to terminate the reaction. The resultant was left standing at 4° C. for 10 minutes and then centrifuged in a centrifuge, and the supernatant was discarded. Next, a 2% aqueous TCA solution was added, mixed thereto, and then centrifuged in a centrifuge, and the supernatant was discarded. This washing operation was performed twice. After the washing, precipitates were dissolved in a 1 N aqueous NaOH solution, and the radioactivity was measured with a liquid scintillation counter.
The calculation of the inhibitory activity of the test compound against CDK2 was performed as a test compound concentration inhibiting 50% of the amount of ^33P bound to MBP (IC50 value) by using EXSUS (version 8.0.0 or version 8.0.1, manufactured by CAC Exicare Corp.).
(§2) The calculation of a Ki value was performed according to the following calculation expression. S means the concentration of ATP contained in the reaction solution, and Km means a Michaelis-Menten constant. Ki=IC50/(1+S/Km)

The target of a further assay is T3, PAK4 (Homo sapiens, UniProt O96013).
T3 construct: purchased Invitrogen Corp. PV4212
T3 sequence (O96013 whole entry): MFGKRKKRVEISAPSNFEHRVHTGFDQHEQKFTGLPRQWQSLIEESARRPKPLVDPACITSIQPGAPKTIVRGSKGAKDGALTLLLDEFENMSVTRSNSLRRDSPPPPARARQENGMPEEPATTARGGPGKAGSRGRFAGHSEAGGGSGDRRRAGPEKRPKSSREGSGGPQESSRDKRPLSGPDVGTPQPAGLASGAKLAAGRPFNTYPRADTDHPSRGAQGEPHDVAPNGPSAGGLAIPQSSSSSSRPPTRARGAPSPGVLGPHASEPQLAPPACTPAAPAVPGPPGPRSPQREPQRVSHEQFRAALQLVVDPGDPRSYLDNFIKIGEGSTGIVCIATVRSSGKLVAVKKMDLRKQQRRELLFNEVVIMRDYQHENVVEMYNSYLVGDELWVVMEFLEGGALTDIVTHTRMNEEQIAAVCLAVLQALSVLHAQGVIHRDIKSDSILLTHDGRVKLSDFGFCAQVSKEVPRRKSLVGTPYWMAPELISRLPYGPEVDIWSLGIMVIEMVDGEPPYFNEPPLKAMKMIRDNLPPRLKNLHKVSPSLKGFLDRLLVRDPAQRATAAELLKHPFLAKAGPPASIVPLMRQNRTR
The assay is described as follows: PAK4 enzyme inhibition test. The format is biochemical. The following applies: Ki=IC50/(1+S/Km); 33P bound to MBP, [γ-33P]ATP, 30° C. for 20 minutes; read-out: Ki value of PAK4 inhibitory activity. The protocol:
PAK4 Enzyme Inhibition Test
The preparation of a buffer solution was performed by mixing a trishydroxyaminomethane buffer solution (Tris buffer solution) (pH 7.5), DTT, Triton X-100, MgCl2, ethylene glycol bis(β-aminoethyl ether)-N,N,N′,N′-tetraacetic acid (EGTA), (3-glycerol phosphate, and sodium orthovanadate(V). A 40 μM [γ-^33P]ATP solution was used by diluting a 10 mM ATP solution and a commercially available [γ-^33P]ATP solution (manufactured by PerkinElmer, Inc., Code No. NEG-302H) with the buffer solution. A PAK4 solution was used by diluting commercially available PAK4 (manufactured by Invitrogen Corp., Catalog No. PV4212) with the buffer solution. A substrate solution was used by diluting MBP with the buffer solution. As for the preparation of a reaction solution, the buffer solution, the 40 μM [γ-^33P]ATP solution, the PAK4 solution, and the substrate solution were mixed at 4° C. to obtain a reaction solution.
as §1, with “PAK4” for “CDK2”, “mixed,” for “mixed thereto,”
The calculation of the inhibitory activity of the test compound against PAK4 was performed as a test compound concentration inhibiting 50% of the amount of ^33P bound to MBP (IC50 value) by using EXSUS (version 8.0.0 or version 8.0.1, manufactured by CAC Exicare Corp.).
as §2

In assay [1] the test system is human large intestine cancer cell line (HCT-116). The assay is described as follows: Human large intestine cancer (HCT-116) cell growth inhibition test. The format is cell-based. The following applies: 72 h, HCT-116, culture for 3 days, sulforhodamine B absorbance. The essentials: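 HCT-116 cells seeded at 1.0×10^3 cells/well in McCoy's 5a with 10% FBS, then exposed to compound (0.1% DMSO final) for 3 days. Growth measured by sulforhodamine B absorbance; IC50 derived from concentration-inhibition data.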

The subject of assay [2] is mouse imiquimod-induced psoriasis model. Briefly: Ear thickening suppression test using mouse imiquimod-induced psoriasis model. Format: in vivo. Conditions: topical, 120 h, thickness measured on day 5, BALB/c mice, read-out: rate of inhibition of increase in right auricle thickness; for inhibition in vivo at 0.01 %: application of a 0.01% methanol solution for 4 days; for inhibition in vivo at 1 %: application of a 1% solution in methanol for 4 days. The protocol: Ear Thickening Suppression Test Using Mouse Imiquimod-Induced Psoriasis Model
An imiquimod-induced psoriasis model test was carried out by modifying the method of Leslie van der Fits et al. (J. Immunol. 182, 5836 (2009)). BALB/c mice were used (female, supplied by Charles River Laboratories Japan, Inc.) as laboratory animals. On the start day of the test, the thicknesses of the right auricles of the mice were measured with a thickness gauge (model SMD-565J manufactured by TECLOCK Corp.). A test compound solution or only a solvent was applied or orally administered, and after 60 minutes, 5 mg of imiquimod (Beselna Cream 5% manufactured by Mochida Pharmaceutical Co., Ltd.) was applied to the insides of the right auricles. The test compound solution or solvent administration and the imiquimod application were carried out for 4 days, and the thicknesses of the right auricles were measured again on day 5. When increase in the thicknesses of the right auricles of the solvent-administered group on day 5 was defined as 100%, the rate of inhibition of increase (%) at each dose of the test compound was calculated.

The structures appear in SMILES notation. A value given as a limit tells only on which side of the number the result lay.

T1 sequence (P50613 whole entry): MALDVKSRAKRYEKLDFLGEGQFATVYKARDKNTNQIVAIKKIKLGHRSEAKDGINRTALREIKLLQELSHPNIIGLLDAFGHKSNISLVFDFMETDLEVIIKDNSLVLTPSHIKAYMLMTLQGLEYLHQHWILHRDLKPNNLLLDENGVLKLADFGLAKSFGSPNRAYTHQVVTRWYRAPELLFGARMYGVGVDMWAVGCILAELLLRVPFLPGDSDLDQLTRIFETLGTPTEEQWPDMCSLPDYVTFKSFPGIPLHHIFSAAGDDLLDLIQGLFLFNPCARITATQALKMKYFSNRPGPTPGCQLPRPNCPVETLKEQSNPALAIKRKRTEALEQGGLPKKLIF
T1 sequence (P51946 whole entry partner): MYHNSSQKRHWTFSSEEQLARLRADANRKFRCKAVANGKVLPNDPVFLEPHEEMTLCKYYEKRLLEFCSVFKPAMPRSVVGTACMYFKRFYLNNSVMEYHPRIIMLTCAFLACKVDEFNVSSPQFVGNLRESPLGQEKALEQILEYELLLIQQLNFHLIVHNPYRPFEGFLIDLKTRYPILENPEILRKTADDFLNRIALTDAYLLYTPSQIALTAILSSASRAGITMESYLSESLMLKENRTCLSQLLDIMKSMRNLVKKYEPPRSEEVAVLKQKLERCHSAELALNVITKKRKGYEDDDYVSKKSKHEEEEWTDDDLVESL
T1 sequence (P51948 whole entry partner): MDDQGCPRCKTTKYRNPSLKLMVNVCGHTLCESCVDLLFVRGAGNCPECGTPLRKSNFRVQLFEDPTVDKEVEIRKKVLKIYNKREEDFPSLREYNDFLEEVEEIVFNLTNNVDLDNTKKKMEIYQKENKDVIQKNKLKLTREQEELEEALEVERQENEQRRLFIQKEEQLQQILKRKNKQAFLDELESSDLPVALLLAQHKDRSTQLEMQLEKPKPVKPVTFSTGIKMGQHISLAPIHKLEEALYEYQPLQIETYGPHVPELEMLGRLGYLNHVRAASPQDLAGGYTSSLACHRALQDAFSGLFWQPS

What is called Ki is a measure of affinity in units of concentration, obtained from inhibition or displacement. As a reminder, the IC50 is the midpoint of a concentration-inhibition curve. Low readings indicate greater potency in that assay, high ones weaker potency in that assay. Take `CC1(C)c2[nH]nc(NC(=O)C3([Si](C)(C)C)CCC3)c2CN1C(=O)NC(CO)c1ccccn1` (centres unmarked) [IV-534, N-[2-Hydroxy-1-(pyridin-2-yl)ethyl]-6,6-dimethyl-3-[1-(trimethylsilyl)cyclobutanecarboxamido]-4,6-dihydropyrrolo[3,4-c]pyrazole-5(1H)-carboxamide]: the inhibition constant Ki was no more than 50 nM at CDK7, no less than 1000 nM at CDK2 and no less than 500 nM on PAK4. Further, in assay [1], the 50% inhibitory concentration (IC50) is no more than 500 nM.
Consider `COCC(C)(C)C(NC(=O)N1Cc2c(NC(=O)C3([Si](C)(C)C)CCC3)n[nH]c2C1(C)C)c1ccccc1` (centres unmarked) [IV-676, N-(3-Methoxy-2,2-dimethyl-1-phenylpropyl)-6,6-dimethyl-3-[1-(trimethylsilyl)cyclobutanecarboxamido]-4,6-dihydropyrrolo[3,4-c]pyrazole-5(1H)-carboxamide], for which the inhibition in vivo at 0.01 % in assay [2] was no less than 50%.
For `CC(C)C(NC(=O)N1Cc2c(NC(=O)C3([Si](C)(C)C)CCC3)n[nH]c2C1(C)C)C(C)(C)CO` (centres unmarked) [IV-822, N-(1-Hydroxy-2,2,4-trimethylpentan-3-yl)-6,6-dimethyl-3-[1-(trimethylsilyl)cyclobutanecarboxamido]-4,6-dihydropyrrolo[3,4-c]pyrazole-5(1H)-carboxamide], the values for the inhibitory constant (Ki) on CDK7, at CDK2 and on PAK4 were no more than 50 nM, no less than 1000 nM and no less than 500 nM, respectively. In assay [1], this compound registered an IC50 of no more than 500 nM.
In the case of `CCCCO[C@@H](C(=O)N1Cc2c(NC(=O)C3([Si](C)(C)C)CCC3)n[nH]c2C1(C)C)c1ccccc1` [IV-1200, (R)—N-[5-(2-Butoxy-2-phenylacetyl)-6,6-dimethyl-1,4,5,6-tetrahydropyrrolo[3,4-c]pyrazol-3-yl]-1-(trimethylsilyl)cyclobutanecarboxamide], the inhibition in vivo at 0.01 % in assay [2] was no less than 50%.
As for `C[C@@H](Oc1ccccc1)C(=O)N1Cc2c(NC(=O)C3([Si](C)(C)C)CCC3)n[nH]c2C1(C)C` [IV-1258, (R)—N-[6,6-Dimethyl-5-(2-phenoxypropanoyl)-1,4,5,6-tetrahydropyrrolo[3,4-c]pyrazol-3-yl]-1-(trimethylsilyl)cyclobutanecarboxamide], the Ki on CDK7 is no more than 50 nM; at CDK2 it was no less than 1000 nM; on PAK4 it was no less than 500 nM. Further, the IC50 in assay [1] was no more than 500 nM.
Consider `CC(=O)OC[C@@H](NC(=O)N1Cc2c(NC(=O)C3([Si](C)(C)C)CCC3)n[nH]c2C1(C)C)c1ccccc1` [V-1442, (S)-2-{6,6-Dimethyl-3-[1-(trimethylsilyl)cyclobutanecarboxamido]-1,4,5,6-tetrahydropyrrolo[3,4-c]pyrazole-5-carboxamido}-2-phenylethyl acetate], for which the inhibition in vivo at 1 % in assay [2] is no less than 50%.
Turning to `CCC(=O)OC[C@@H](NC(=O)N1Cc2c(NC(=O)C3([Si](C)(C)C)CCC3)n[nH]c2C1(C)C)c1ccccc1` [V-1446, (S)-2-{6,6-Dimethyl-3-[1-(trimethylsilyl)cyclobutanecarboxamido]-1,4,5,6-tetrahydropyrrolo[3,4-c]pyrazole-5-carboxamido}-2-phenylethyl propionate], in assay [2], the inhibition in vivo at 1 % is no less than 50%.
For `CC(C)C(=O)OC[C@@H](NC(=O)N1Cc2c(NC(=O)C3([Si](C)(C)C)CCC3)n[nH]c2C1(C)C)c1ccccc1` [V-1454, (S)-2-{6,6-Dimethyl-3-[1-(trimethylsilyl)cyclobutanecarboxamido]-1,4,5,6-tetrahydropyrrolo[3,4-c]pyrazole-5-carboxamido}-2-phenylethyl isobutanoate], the inhibition in vivo at 1 % in assay [2] is no less than 50%.
For `CC(C)(C)C(=O)OC[C@@H](NC(=O)N1Cc2c(NC(=O)C3([Si](C)(C)C)CCC3)n[nH]c2C1(C)C)c1ccccc1` [V-1462, (S)-2-{6,6-Dimethyl-3-[1-(trimethylsilyl)cyclobutanecarboxamido]-1,4,5,6-tetrahydropyrrolo[3,4-c]pyrazole-5-carboxamido}-2-phenylethyl pivalate], the inhibition in vivo at 1 % in assay [2] was no less than 50%.
Take `CCCCCCCC(=O)OC[C@@H](NC(=O)N1Cc2c(NC(=O)C3([Si](C)(C)C)CCC3)n[nH]c2C1(C)C)c1ccccc1` [V-1470, (S)-2-{6,6-Dimethyl-3-[1-(trimethylsilyl)cyclobutanecarboxamido]-1,4,5,6-tetrahydropyrrolo[3,4-c]pyrazole-5-carboxamido}-2-phenylethyl octanoate]: the inhibition in vivo at 1 % in assay [2] is no less than 50%.
For the compound `CCCCCCCCCCCC(=O)OC[C@@H](NC(=O)N1Cc2c(NC(=O)C3([Si](C)(C)C)CCC3)n[nH]c2C1(C)C)c1ccccc1` [V-1474, (S)-2-{6,6-Dimethyl-3-[1-(trimethylsilyl)cyclobutanecarboxamido]-1,4,5,6-tetrahydropyrrolo[3,4-c]pyrazole-5-carboxamido}-2-phenylethyl dodecanoate], the inhibition in vivo at 1 % in assay [2] was no less than 50%.

(Values after US10131679B2, “Substituted dihydropyrrolopyrazole compound” (UBE INDUSTRIES, LTD., priority 2014, dated 2018).)
